Reference: PMC10605077, “In Vitro and In Silico Antiviral Activity of Di-Halogenated Compounds Derived from L-Tyrosine against Human Immunodeficiency Virus 1 (HIV-1)” (Current Issues in Molecular Biology, 2023)

Columns and labels:
MTT cytotoxicity assay = type: cell-based; settings: human; TZM-bl cells, MTT, 48 h
Description: The in vitro cytotoxic effect of the di-halogenated compounds on TZM-bl cells was determined with the MTT (3-(4,5-Dimethylthiazol-2-yl)-2,5-diphenyltetrazolium bromide) assay (Sigma-Aldrich, St. Louis, MO, USA). For this purpose, 1.2 × 10^5 cells/well were seeded in 96-well plates, which were incubated at 37 °C and 5% CO2 for 24 h. DMEM was used as a negative control and serial two-fold dilutions of the compounds were performed at 9.37 to 300 μM in DMEM supplemented with 5% FBS. A total of 100 μL/well of each dilution was added and incubated for 48 h. Subsequently, the cells were washed 2 times with 1X PBS, and 30 μL of MTT solution (2 mg/mL) was added and incubated for 2 h at 37 °C, in a light-protected culture. Then, 100 µL of DMSO was added to dissolve the formazan crystals, placed in shaking for 15 min, and absorbance reading was performed at 570 nm, using the Microplate Spectrophotometer (Thermo Scientific™ Multiskan™ GO, Waltham, MA, USA). Two independent experiments evaluated each experimental condition in quadruplicate (n = 8). The percentage of viability was calculated concerning the absorbance of the controls without a compound (100% viability). The 50% cytotoxic concentration was defined as the concentration of each compound that can reduce cell viability to 50% of the untreated cell control. CC50 was calculated and analyzed with GraphPad Prism version 8.0.1 (GraphPad Software, Inc., San Diego, CA, USA).

[1] = test system: HIV-GFP-VSV-G reporter virus; experiment: microbe, parasite or virus in culture; type: cell-based, HIV-1; settings: Human immunodeficiency virus 1, TZM-bl, read-out: percentage inhibition of HIV-GFP-VSV-G replication
HIV-1 BaL [2] = experiment: Anti-HIV activity in PBMC, p24 ELISA of supernatant; type: cell-based; settings: 150 μM, supernatant, 7 days
HIV-1 BaL [3] = experiment: Anti-HIV activity in PBMC, intracellular p24 by flow cytometry; type: cell-based; settings: 7 days
Description: In the presence of various concentrations of the most bioactive compounds, 1×10^6 PBMCs previously stimulated with 8 μg/mL of PHA and 50UI/mL of IL-2 were treated for 1 h. […] After spinoculation, cells were washed twice with PBS 1x to remove free virions, and then, fresh medium supplemented with 20 UI/mL of IL-2, with or without the di-halogenated compounds derived from L-Tyrosine dilutions, was added. Cells were plated in 96-well culture plates and incubated for 7 days. […] In addition, antiviral activity was also assessed by measuring intracellular p24 in harvested cells. Briefly, cells were stained with fixable viability dye eFluor 506 (eBioscience, Leicestershire, UK), CD3 (UCHT1; Thermo Scientific, Wilmington, DE, USA), CD4 (RPA-T4; BD Biosciences, San Jose, CA, USA), and p24 PE (KC57; Beckman Coulter, Pasadena, CA, USA), as detailed in the manufacturer’s protocol. Later, cells were washed and resuspended in PBS, and the lecture was measured instead in the LS Fortessa cytometer (BD Biosciences, Franklin Lakes, NJ, USA). Data were analyzed using FlowJo version 10.5.3 (FlowJo, LLC, Ashland, OR, USA).

HIV-1IIIB (X4) = experiment: Anti-HIV activity in infected TZM-bl cells (luciferase), pre- and post-infection treatment; type: cell-based, Human Immunodeficiency Virus Type 1 (HIV-1); settings: TZM-bl cells
Description: TZM-bl cells were plated in a flat-bottom 96-well plate (Corning Inc., Corning, New York, NY, USA) at the concentration of 1.2 × 10^5 cells/well and incubated for 24 h at 37 °C before the addition or not of each compound at non-cytotoxic concentrations (pre-infection treatment). Then, 1 h later the treatment was removed, and the infection was performed by adding 10 ng/mL of HIV-1IIIB p24 (X4) or 2 ng/mL of HIV-1 BaL (R5). After 3 h, the virus was removed and washed, and the compound dilutions were added again (post-infection treatment). Additionally, three wells were left for the negative control (cells without treatment or infection), the positive control of infection (cells infected with the virus without treatment), and the positive control of inhibition (AZT). Antiviral activity was quantified 48 h after treatment by measuring luciferase activity, which is directly proportional to the number of infectious virus particles in the sample [23]. The luciferase activity was quantified via luminescence emitted by the cells using Bright-GloTM Luciferase Assay System (Promega Corp., Madison, WI, USA), following the manufacturer’s instructions. Briefly, 100 μL of the reagent was added to 100 μL of TZM-bl cells and incubated for at least 2 min, protected from light. Relative light units (RLUs) were measured using the multi-mode plate reader (Thermo ScientificTM VarioskanTM LUX). Each experimental condition was performed in triplicate in two independent experiments (n = 6). The percentage inhibition was calculated as follows: 100 − (RLU of treated cells − RLU of uninfected cells/RLU of infection control − RLU of uninfected cells) × 100.

[4] = Viability assay of PBMC, flow cytometry with viability dye; type: cell-based, Human; settings: human, PBMC stimulated with PHA and IL-2; all concentrations tested (18.75 μM up to 150 μM), 7 days; read-out: viability level on PBMCs
Description: PBMCs were thawed and let in the culture in RPMI with 10% fetal bovine serum (FBS) (Gibco, Grand Island, NY, USA) for 24 h before each experiment. Cells were stimulated for 48 h with 8 μg/mL of Phytohemagglutinin-PHA (Sigma-Aldrich, St. Louis, MO, USA) and 50 UI/mL of IL-2 (Peprotech, Rocky Hill, CT, USA). In the presence of various concentrations of di-halogenated compounds derived from L-Tyrosine, 2 × 10^5 cells per well were treated and resuspended in 200 µL of fresh medium with 20 UI/mL of IL-2 and incubated in 96-well culture plates for 7 days. After 7 days post-treatment, cell viability was determined using flow cytometry. Briefly, cells were stained with fixable viability dye eFluor 506 (eBioscience, Leicestershire, UK) as detailed in the manufacturer’s protocol for 30 min in the dark. Later, cells were washed and resuspended in PBS, and the percentage of viable cells was measured instead in the LS Fortessa cytometer (BD Biosciences, Franklin Lakes, NJ, USA). Data were analyzed using FlowJo version 10.5.3 (FlowJo, LLC, Ashland, OR, USA).

COc1c(Cl)cc(C[C@@H](C(=O)O)N(C)C)cc1Cl [TODC-2M]
CC50 at 48 h (MTT cytotoxicity assay): > 300 µM
inhibition at 150 µM [1]: 29%
inhibition of HIV-1 BaL in PBMC, extracellular p24 ELISA (HIV-1 BaL [2]): 21.6%
inhibition at 150 µM (HIV-1 BaL [2]; Human immunodeficiency virus 1, BAL, PBMC, 168 h, read-out: inhibition of HIV-1 BaL in PBMC, extracellular p24 ELISA): > 20%
inhibition at 18.75 µM (HIV-1 BaL [3]; Human immunodeficiency virus 1, BAL, PBMC, 168 h, 18.75 μM, read-out: inhibition of HIV-1 BaL replication in PBMC, flow cytometry (intracellular p24)): 50.6%
inhibition at 75 µM (HIV-1 BaL [3]; Human immunodeficiency virus 1, BAL, PBMC, 168 h, 75 μM, read-out: inhibition of HIV-1 BaL replication in PBMC, flow cytometry (intracellular p24)): 69.6%
inhibition at 150 µM (HIV-1 BaL [3]; Human immunodeficiency virus 1, BAL, PBMC, 168 h, 150 µM, read-out: inhibition of HIV-1 BaL replication in PBMC, flow cytometry (intracellular p24)): > 60%
inhibition of HIV-1 BaL replication in PBMC, flow cytometry (intracellular p24) (HIV-1 BaL [3]; all concentrations): over 50%
inhibition at 18 µM (HIV-1IIIB (X4); Human immunodeficiency virus 1, TZM-bl, 18 µM, read-out: Percentage inhibition of HIV-1IIIB (X4 strain) replication): -18.5%
inhibition at 37 µM (HIV-1IIIB (X4); Human immunodeficiency virus 1, TZM-bl, 37 µM, read-out: Percentage inhibition of HIV-1IIIB (X4 strain) replication): 40.6%
inhibition at 75 µM (HIV-1IIIB (X4); Human immunodeficiency virus 1, TZM-bl, 75 µM, read-out: Percentage inhibition of HIV-1IIIB (X4 strain) replication): 62.8%
inhibition at 150 µM (HIV-1IIIB (X4); Human immunodeficiency virus 1, TZM-bl, 150 µM, read-out: Percentage inhibition of HIV-1IIIB (X4 strain) replication): 99.6%
IC50 (HIV-1IIIB (X4); Human immunodeficiency virus 1, HIV-1IIIB (X4), luciferase, 48 h): ~39.1 µM
viability at 7 days [4]: > 90%
